Laboratory results from patent US20090221069A1, “METHOD FOR AUGMENTING THE ABILITY OF T-CELLS AND OTHER CELLS FOR FIGHTING DISEASE AND INVADE DISEASED ORGANS, FOR ELEVATING CD3 ZETA AND TNF-ALPHA EXPRESSION IN T-CELLS, AND MIXING T-CELL BOOSTING AND KIT PARTICULARLY USEFUL IN SUCH METHOD” (priority 2005, published 2009).
Like-named read-outs stand apart in the source and are kept apart here. No end group written: not given here.

Assays:
ion channel = conditions: from manufacturer's data sheets and/or the literature; cited from earlier work
[1] = system: normal resting human T-cells; test: Cytokine (TNFα, IFNγ, IL-10, IL-4) secretion by resting T-cells, sandwich ELISA; assay type: cell-based; conditions: for TNFα secretion in resting normal human T-cells: highest concentration used (DTX-K 100 nM), FIG. 18a; for cytokine secretion profile (TNFα, IFNγ, IL-4, IL-10): data not shown
Experimental: Human T-cells: Normal human T-cells were purified from peripheral blood of healthy donors as described (19, 23, 61), and the resulting cell population, containing ≧90% T-cells, was suspended in RPMI medium supplemented with 10% FCS, 1% LGlutamine and antibiotics (Biological Industries, Bet Haemek, Israel) and maintained at 2×10^6 cells/ml (37° C./5% CO2).
Determination of TNFα, IFNγ, IL-10 and IL-4 by ELISA: Freshly-purified normal resting human T-cells (2×10^6/ml) were incubated in 24-well plates (Costar, Corning, N.Y.) and the various channel blockers were added. Importantly, no other stimulating molecule (e.g. phorbol esters, antigens, anti-CD3/CD28 mAbs) was added. Cytokine […] levels were measured in supernatants after 24 hr for TNFα and IFNγ and after 72 hr for IL-10 and IL-4, by quantitative sandwich ELISA (R&D, Minneapolis, Minn.), according to the manufacturer's instructions.

Normal human T-cells = assay type: cell-based
Experimental: Normal human T-cells, isolated from fresh peripheral blood lymphocytes, were treated with 10 nM of neurotransmitters: either GnRH-II or dopamine (30 min or 24 hr at 37° C.). Following this neurotransmitter treatment, the T-cells were washed with phosphate-buffered saline (PBS) and […] with paraformaldehyde (PFA) for 20 min at room temperature (1×10^6 cells resuspended in 50 μl PBS+100 μl 0.5% PFA). The T-cells were then washed again with PBS and subjected to single immunofluorescence staining, using a mouse anti-human TCR/CD3zeta chain subunit (also called CD247) mAb (Serotec) at 1:100 dilution/1×10^6 cells, diluted in 10 μg/ml digitonin (Sigma) cold solution, for 30 min on ice. For isotype control, cells were stained with normal mouse serum (Jackson Immunoresearch Laboratories). The cells were then stained with a fluorescein isothiocyanate (FITC)-conjugated anti-mouse IgG (100 μl of 1:100 dilution; Jackson). Cells stained with the second Ab only served as additional negative controls. Fluorescence profiles were recorded in a FACSort.

[2] = system: human cancer growing in SCID mice; assay type: in vivo
human T-cells = conditions: data not shown
[3] = SCID mice, preliminary evidence

For `O=C(O)c1cc([N+](=O)[O-])ccc1NCCCc1ccccc1` [NPPB], the effective concentrations (ion channel) is listed as 100 to 200 µM.
For `C=C[C@H]1C[N@@]2CC[C@H]1C[C@H]2[C@H](O)c1ccnc2ccc(OC)cc12` [Quinine], the “TNFα secretion in resting normal human T-cells” value ([1]; 24 hours exposure) is listed as “somewhat weaker effect” and the effective concentrations (ion channel) is listed as 1 to 10 µM.
In the case of “GnRH-II (QHWSHGWYPG; ends and bridges not checked; UniProt O43555 24-33, looked up)”, the “intensity of CD3zeta expression (number of CD3zeta per T-cell)” value (Normal human T-cells; 10 nM, 30 minutes exposure) is reported as “very significant increase”, the “number (percentage) of cells expressing CD3zeta” value (Normal human T-cells; 10 nM, 30 minutes exposure, no other molecules) is reported as “very significant increase” and the “overall in vivo activity of human tumor-specific T-cells against human cancer (cancer rejection)” value (from here on “overall in vivo activity”) [2, 3] is reported as “augmented significantly”.
In the case of `CCCCCCCCCCCCCC(=O)O[C@@H]1[C@@H](C)[C@@]2(O)[C@@H](C=C(CO)C[C@]3(O)C(=O)C(C)=C[C@@H]23)[C@@H]2C(C)(C)[C@]12OC(C)=O` [PMA], the “cytokine secretion profile (TNFα, IFNγ, IL-4, IL-10)” value [1] is reported as “increased secretion of TNFα, IFNγ, IL-4 and IL-10”.
With `N[C@@H](CCC(=O)O)C(=O)O` [glutamate] the “overall in vivo activity” value [2, 3] was “augmented significantly”.
With `NCCc1ccc(O)c(O)c1` [dopamine] the “number (percentage) of cells expressing CD3zeta” value (Normal human T-cells) was “clear increase”, the “number of T-cells expressing CD3zeta, longer-term exposure versus 30 minutes” value (Normal human T-cells) was “significantly more pronounced” and the “overall in vivo activity” value ([2]; mouse, in vivo) was “augmented significantly”.
In the case of Kaliotoxin, the “TNFα secretion in resting normal human T-cells” value ([1]; 24 hours exposure) is given as “somewhat weaker effect” and the effective concentrations (ion channel) is given as 0.001 to 0.1 µM.
With Dendrotoxin-K the “dose dependence of TNFα secretion triggering” value ([1]; 24 hours exposure, FIG. 18b) was “dose dependent”, the “TNFα secretion in resting normal human T-cells” value ([1]; 24 hours exposure) was “marked TNFα secretion” and the “TNFα secretion by T-cells from six different individuals” value ([1]; 24 hr, 100 nM, FIG. 18c-h) was “triggered marked TNFα secretion”. For the same molecule, the “cytokine secretion profile (TNFα, IFNγ, IL-4, IL-10)” value [1] was “selectively increased only TNFα secretion”, the “effect on cell survival of human T-cells” value (human T-cells) was “no significant effect” and the “effect on proliferation of human T-cells” value (human T-cells) was “no significant effect”.
